Among the data in BindingDB's records for doi:10.1016/j.ejmech.2021.113556 (Zhejiang University, 2021) are IC50 values, retold here.

Structures are written as SMILES.

A word on the IC50: it is the concentration that gives 50% inhibition. A higher IC50 goes with weaker potency in that assay.

In experiment [1] the target is Proteasome subunit beta type-6 (Homo sapiens) (UniProt P28072). In words: Inhibition of caspase-like activity of human proteasome beta-1c subunit using SUC-LLE-AMC as flurogenic substrate preincubated for 15 mins followed by substrate addition and measured after 1 hr by fluorescence assay.
Chain of Proteasome subunit beta type-6 (Homo sapiens) (P28072 whole entry, looked up): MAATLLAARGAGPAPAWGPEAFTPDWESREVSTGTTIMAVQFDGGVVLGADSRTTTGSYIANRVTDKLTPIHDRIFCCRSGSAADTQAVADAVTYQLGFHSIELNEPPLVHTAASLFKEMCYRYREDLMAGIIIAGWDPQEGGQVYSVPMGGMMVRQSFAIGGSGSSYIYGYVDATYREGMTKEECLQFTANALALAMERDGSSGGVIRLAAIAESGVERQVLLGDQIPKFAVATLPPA
For experiment [2], the target named is Proteasome subunit beta type-7 (Homo sapiens) (UniProt Q99436). In words: Inhibition of human trypsin-like activity of 20s proteasome beta 2c subunit using SUC-KQL-AMC as flurogenic substrate preincubated for 15 mins followed by substrate addition and measured after 1 hr by fluorescence assay.
Chain of Proteasome subunit beta type-7 (Homo sapiens) (Q99436 whole entry, looked up): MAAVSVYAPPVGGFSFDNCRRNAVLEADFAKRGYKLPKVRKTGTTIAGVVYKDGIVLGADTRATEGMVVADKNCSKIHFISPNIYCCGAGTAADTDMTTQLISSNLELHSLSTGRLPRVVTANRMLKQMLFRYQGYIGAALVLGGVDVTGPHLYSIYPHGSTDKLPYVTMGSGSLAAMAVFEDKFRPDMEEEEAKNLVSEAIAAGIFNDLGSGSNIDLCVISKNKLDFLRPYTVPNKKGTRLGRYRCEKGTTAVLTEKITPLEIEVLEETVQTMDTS

For `COc1ccc(C[C@H](NC(=O)[C@@H](C)NC(=O)N2CC[C@H](OC)C2)C(=O)N[C@@H](Cc2ccccc2)C(=O)[C@@]2(C)CO2)cc1`, the IC50 in experiment [1] and in experiment [2] was more than 10 µM each time.

Consider `C[C@H](NC(=O)N1CCC(NC(=O)c2nccs2)CC1)C(=O)N[C@@H](Cc1c[nH]c2ccccc12)C(=O)N[C@@H](Cc1ccccc1)C(=O)[C@@]1(C)CO1`, for which the IC50 is 4.36 µM in experiment [1] and more than 10 µM in experiment [2].

For the molecule `COc1ccc(C[C@H](NC(=O)[C@@H](C)NC(=O)N2CCC[C@@H](OC)C2)C(=O)N[C@@H](Cc2ccccc2)C(=O)[C@@]2(C)CO2)cc1`, the IC50 in experiment [1] and in experiment [2] was more than 10 µM throughout.

As for `COc1ccc(C[C@H](NC(=O)[C@@H](C)NC(=O)N2CCC(OC)CC2)C(=O)N[C@@H](Cc2ccccc2)C(=O)[C@@]2(C)CO2)cc1`, the IC50 in experiment [1] and in experiment [2] was more than 10 µM throughout.
